Data as given in patent publication US8741567B2, “Composition and methods related to modification of 5-hydroxymethylcytosine (5-hmC)” (The University of Chicago, priority 2010, dated 2014).

Assays:
wild-type βGT = wild-type βGT (Enterobacteria phage T4, UniProt P04547)
TaqαI = molecular target: T1, TaqαI (Thermus aquaticus, UniProt P14386); experiment: TaqαI digestion of 32-mer dsDNA with T*CGA; conditions: 100 U TaqαI, 1 hr, 65° C.
T1 sequence (P14386 1-263): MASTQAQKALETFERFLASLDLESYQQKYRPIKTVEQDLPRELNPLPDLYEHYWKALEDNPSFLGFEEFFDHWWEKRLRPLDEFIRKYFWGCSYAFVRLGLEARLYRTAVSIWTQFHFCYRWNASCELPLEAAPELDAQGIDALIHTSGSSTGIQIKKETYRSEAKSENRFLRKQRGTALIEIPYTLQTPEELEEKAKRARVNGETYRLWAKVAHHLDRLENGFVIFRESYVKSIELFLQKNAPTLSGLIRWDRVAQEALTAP

MspI [1] = molecular target: T2, MspI (Moraxella sp, UniProt P11405); experiment: MspI digestion of 32-mer dsDNA with C*CGG; conditions: 100 U MspI, 1 hr, 37° C.
Taq polymerase = molecular target: T3, Taq polymerase (Thermus aquaticus, UniProt P19821); experiment: Primer extension assay on 40-mer DNA template; assay type: biochemical; conditions: streptavidin added (6 eq.-48 eq.), 72° C., 1 min
T3 construct: purchased Sigma
Description: FIGS. 9A-9B. The streptavidin adduct of biotin-5-N3-gmC hinders primer extension. (A) Sequence of 40 mer DNA containing cytosines derivatives used in primer extension. Cytosine 25, counting from right to left, with an asterisk presented the modified cytosines in the sequences, and also the position at which DNA polymerases tended to stall when the streptavidine adduct of biotin-5-N3-gmC-containing DNA was used as template. The arrow corresponded to the reverse PCR primer used for primer extension. (B) Primer extension assays for 40 mer DNA containing different cytosine species, shown beside a Sanger sequencing ladder. […] Position with the most significant stalling was position 24, one base before the modified position, although significant stalling still observed in the modified position (position 25, arrow). Primer extension using Sigma TaqRED polymerase, extension at 72° C. for 1 min. Sequencing ladder was performed with Sequenase from USB.
The properties of 5-hmC in duplex DNA are quite similar to those of 5-mC in terms of its sensitivity toward enzymatic reactions such as restriction enzyme digestion and polymerization (Flusberg et al., 2010; Josse and Kornberg, 1962; Lariviere and Morera, 2004). In an attempt to develop a method to differentiate these two bases in DNA, primer extension with a biotin-N3-5-gmC-modified DNA template was tested. […]

[2] = test system: four different polymerases; experiment: Primer extension and PCR with 5-gmC-containing DNA; assay type: biochemical
Description: The inventors synthesized the phosphoramidite of 5-hmC (now commercially available from Glen Research) and prepared duplex DNA with 5-hmC incorporated at specific locations.

HpaII = HpaII (Haemophilus parainfluenzae, UniProt P36433); assay type: biochemical; conditions: 40-mer DNA
MspI [3] = molecular target: T2, MspI; experiment: MspI restriction digestion of 40-mer DNA with CC*GG; assay type: biochemical; conditions: 40-mer duplex DNA
Description: FIG. 2. Restriction enzyme digestion assay of a 40 mer DNA with CC*GG (where C*=C, 5-meC, 5-hmC, or 5-gmC).
The inventors tested a restriction enzyme digestion assay with a 40-mer DNA containing a CC*GG (C*=C, 5-meC, 5-hmC, or 5-gmC) sequence in the middle. […] With bulkier groups on 5-hmC, digestions by other restriction enzymes that recognize DNA sequences containing CpG can be blocked.

T2 sequence (P11405 whole entry): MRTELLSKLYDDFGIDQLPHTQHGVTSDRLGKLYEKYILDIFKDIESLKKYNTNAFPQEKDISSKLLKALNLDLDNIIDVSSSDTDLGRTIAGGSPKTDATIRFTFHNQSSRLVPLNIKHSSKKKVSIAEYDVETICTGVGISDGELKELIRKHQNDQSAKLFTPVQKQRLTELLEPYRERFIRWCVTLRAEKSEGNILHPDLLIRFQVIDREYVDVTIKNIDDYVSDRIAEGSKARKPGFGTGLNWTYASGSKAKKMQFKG
Sequence of wild-type βGT (P04547 with tags, fused parts or gaps): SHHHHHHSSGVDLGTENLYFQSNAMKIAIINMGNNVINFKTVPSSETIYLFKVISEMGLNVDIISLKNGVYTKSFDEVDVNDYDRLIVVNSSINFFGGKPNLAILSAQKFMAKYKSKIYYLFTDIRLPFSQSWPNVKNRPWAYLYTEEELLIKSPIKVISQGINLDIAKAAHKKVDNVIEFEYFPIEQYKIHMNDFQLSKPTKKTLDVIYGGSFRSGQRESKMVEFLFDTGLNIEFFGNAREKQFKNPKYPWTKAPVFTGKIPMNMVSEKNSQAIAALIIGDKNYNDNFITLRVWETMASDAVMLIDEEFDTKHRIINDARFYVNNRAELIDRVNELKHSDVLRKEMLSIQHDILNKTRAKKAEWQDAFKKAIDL
Sequence of HpaII (P36433 whole entry, looked up): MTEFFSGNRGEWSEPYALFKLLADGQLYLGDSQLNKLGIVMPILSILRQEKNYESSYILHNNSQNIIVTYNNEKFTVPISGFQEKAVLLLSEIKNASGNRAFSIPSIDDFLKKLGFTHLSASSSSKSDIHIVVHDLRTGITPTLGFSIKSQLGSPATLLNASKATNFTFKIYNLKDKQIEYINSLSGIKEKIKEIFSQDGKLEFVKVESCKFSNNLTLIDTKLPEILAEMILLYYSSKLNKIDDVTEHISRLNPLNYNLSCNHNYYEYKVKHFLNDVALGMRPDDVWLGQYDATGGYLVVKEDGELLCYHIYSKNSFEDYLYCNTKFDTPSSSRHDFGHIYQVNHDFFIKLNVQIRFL
T3 sequence (P19821 whole entry): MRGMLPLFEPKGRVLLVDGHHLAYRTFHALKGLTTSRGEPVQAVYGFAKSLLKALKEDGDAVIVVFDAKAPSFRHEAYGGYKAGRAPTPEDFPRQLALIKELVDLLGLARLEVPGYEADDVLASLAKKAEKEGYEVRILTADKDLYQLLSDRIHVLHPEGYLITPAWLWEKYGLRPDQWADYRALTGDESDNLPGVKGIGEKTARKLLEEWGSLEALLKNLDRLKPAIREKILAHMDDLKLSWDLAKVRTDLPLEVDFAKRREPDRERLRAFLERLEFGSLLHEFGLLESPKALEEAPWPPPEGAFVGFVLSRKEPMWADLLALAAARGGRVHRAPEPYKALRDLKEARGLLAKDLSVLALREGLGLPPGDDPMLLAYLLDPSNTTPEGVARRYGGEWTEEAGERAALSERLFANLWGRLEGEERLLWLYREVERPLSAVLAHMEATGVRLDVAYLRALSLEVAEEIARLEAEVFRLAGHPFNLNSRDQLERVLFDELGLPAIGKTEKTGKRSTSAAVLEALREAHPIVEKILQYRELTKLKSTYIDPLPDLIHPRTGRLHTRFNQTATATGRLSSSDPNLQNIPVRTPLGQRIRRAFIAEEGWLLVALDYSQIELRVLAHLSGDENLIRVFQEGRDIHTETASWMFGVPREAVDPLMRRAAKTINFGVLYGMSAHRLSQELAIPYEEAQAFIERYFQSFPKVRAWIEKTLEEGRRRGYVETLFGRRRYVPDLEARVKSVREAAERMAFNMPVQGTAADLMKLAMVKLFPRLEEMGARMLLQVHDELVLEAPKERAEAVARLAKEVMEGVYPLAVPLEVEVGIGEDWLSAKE

Substance: Uridine 5′-(2,3,4-tri-O-acetyl-6-azido-6-deoxy-α-D-glucopyranosyl)diphosphate bistriethylammonium salt [UDP-6-N3-Glu]
- efficiency of transfer to 5-hmC-containing duplex DNA relative to UDP-Glu (wild-type βGT): as efficiently as with UDP-Glu
- time for 6-N3-glucose transfer reaction to finish (wild-type βGT; 11-mer duplex DNA with 5-hmC, as low as 1% enzyme concentration): ≤ 5 min

Substance: β-6-azide-glucosyl-5-hydroxymethyl-cytosine [N3-5-gmC]
- TaqαI digestion, hemi-modified DNA (TaqαI; hemi-hydroxymethylation): cannot block digestion as well as the fully-modified one
- TaqαI digestion, fully-modified DNA (TaqαI; modified on both strands): only partially
- MspI digestion, fully-modified DNA (MspI [1]): block MspI digestion completely
- MspI digestion, hemi-modified DNA (MspI [1]): can be protected from digestion
- primer extension on modified template with streptavidin (Taq polymerase): completely stalled

Substance: β-glucosyl-5-hydroxymethyl-cytosine [5-gmC]
- interference with polymerization reaction [2]: does not exhibit any interference
- HpaII cutting of modified CC*GG site (HpaII): does not cut
- MspI cutting of modified CC*GG site (MspI [3]): completely blocks
- MspI cutting of modified CC*GG site (MspI [3]; listed as C(5-gmC)GG): completely blocked
